Calls of active or inactive are those of the source. The calls are words filed in the database; no cut-off is given here. Peptide text beside a SMILES is read from it.
Assays:
MCF7 [1] = assay: Antiproliferative activity against human MCF7 cells assessed as cell viability at 100 uM after 48 hrs by MTT assay; assay type: functional, cell-based
MCF7 [2] = assay: Antimigratory activity against human MCF7 cells assessed as inhibition of wound-healing activity at 5 uM after 48 hrs by phase contrast microscopic analysis relative to untreated control; assay type: functional
MCF7 [3] = assay: Antiproliferative activity against human MCF7 cells assessed as cell viability after 48 hrs by MTT assay; assay type: functional, cell-based; settings: MCF7, 48 h
MCF7 [4] = assay: Antimigratory activity against human MCF7 cells assessed as inhibition of wound-healing activity at 1 uM after 24 hrs by phase contrast microscopic analysis relative to untreated control; assay type: functional, cell-based
MCF7 [5] = assay: Induction of cell death in human MCF7 cells at 25 uM after 24 hrs; assay type: cell-based; settings: mcf7, 24 h
MCF7 [6] = assay: Induction of morphological changes in human MCF7 cells assessed as cell shrinkage at 5 uM after 24 to 48 hrs by confocal microscopic analysis relative to untreated control; assay type: functional, cell-based
MCF7 [7] = assay: Induction of cortical alpha-tubulin structural changes in human MCF7 cells at 25 uM after 24 to 48 hrs using AlexaFluor 488 and TRITC staining by confocal microscopic analysis relative to untreated control; assay type: functional, cell-based
MCF7 [8] = assay: Induction of alpha-tubulin mislocalization in human MCF7 cells assessed as appearance of aggregated protein around nucleus at 5 uM after 24 to 48 hrs by confocal microscopic analysis relative to untreated control; assay type: functional, cell-based
MCF7 [9] = assay: Inhibition of F-actin structural changes in human MCF7 cells at 25 uM after 24 to 48 hrs using AlexaFluor 488 and TRITC staining by confocal microscopic analysis; assay type: functional, cell-based
MCF7 [10] = assay: Induction of morphological changes in human MCF7 cells at 1 uM after 24 to 48 hrs by confocal microscopic analysis relative to untreated control; assay type: functional, cell-based
MCF7 [11] = assay: Ratio of cytotoxic activity to antimigratory activity against human MCF7 cells; assay type: functional

IC50 (MCF7 [3]) [µM] | SMILES | Activity (MCF7 [1]) | inhibition (MCF7 [2]) | Activity (MCF7 [4]) | inhibition at 5 µM (MCF7 [2]; MCF7, 48 h) [%] | Activity (MCF7 [5]) | Activity (MCF7 [6]) | inhibition (MCF7 [7]) | Activity (MCF7 [8]) | inhibition (MCF7 [9]) | Activity (MCF7 [10]) | Ratio (MCF7 [11])
 | CC(C)C[C@H](NC(=O)[C@H](CCCNC(=N)N)NC(=O)[C@@H](N)CCCCN)C(=O)N[C@@H](CCCNC(=N)N)C(=O)N[C@@H](CCCNC(=N)N)C(=O)N[C@H](C(=O)N[C@@H](Cc1c[nH]c2ccccc12)C(=O)N[C@@H](CCCNC(=N)N)C(=O)N[C@@H](CCCNC(=N)N)C(=O)N[C@@H](Cc1c[nH]c2ccccc12)C(=O)N[C@@H](CCCNC(=N)N)C(N)=O)C(C)C (H-KRLRRVWRRWR-NH2) | inactive | inactive |  |  |  |  |  |  |  |  | 
61.5 | CC(C)C[C@H](NC(=O)[C@H](Cc1c[nH]c2ccccc12)NC(=O)[C@@H](N)CCCCN)C(=O)N[C@@H](CCCNC(=N)N)C(=O)N[C@@H](CCCNC(=N)N)C(=O)N[C@H](C(=O)N[C@@H](Cc1c[nH]c2ccccc12)C(=O)N[C@@H](CCCNC(=N)N)C(=O)N[C@@H](Cc1c[nH]c2ccccc12)C(=O)N[C@@H](Cc1c[nH]c2ccccc12)C(=O)N[C@@H](CCCNC(=N)N)C(N)=O)C(C)C (H-KWLRRVWRWWR-NH2) |  |  | inactive | 40 | Toxic | Active | Active | Active | Active | inactive | 10
